Results as given in PMC7493219 (Journal of Crohn's & Colitis, 2020).
Read-outs that look alike come from different tables or passages of the source.

Assays:
[1] = test system: oxazolone-induced colitis; experiment: Oxazolone-induced colitis model; type: in vivo, Balb/C mice; conditions: for effects of oxazolone (DAI and subscores): highest dose tested, 30 mg/kg
[2] = test system: pSTAT3 in colonic mucosa; experiment: Target engagement in the oxazolone colitis model; type: in vivo, Balb/C mice; conditions: oral 30 mg/kg BID; for T cell infiltration into the colonic mucosa: oxazolone-treated mice
[3] = test system: splenic NK, T and B cells; experiment: Splenocyte studies; type: in vivo, Balb/C mice; conditions: 3 days
[4] = Oral pharmacokinetics in mice; conditions: for concentration at 24 h / Cmax: male, Balb/C, mouse, in vivo, 10 mg/kg; for Cmax: po
[5] = biological target: human recombinant TYK2 (Homo sapiens, UniProt P29597); experiment: LanthaScreen kinase assay; type: biochemical
[6] = biological target: mouse recombinant JAK1 (Mus musculus, UniProt P52332); experiment: LanthaScreen kinase assay; type: biochemical
[7] = test system: IL-13-induced pSTAT6 in HT-29 cells; experiment: HT-29 IL-13/pSTAT6 assay; type: cell-based; conditions: Homo sapiens, HT-29, read-out: Mean ± SD inhibitory potency [pIC50], IL-13/pSTAT6 (converted)
[8] = test system: IL-13-potentiated IL-8 production in HT-29 cells; experiment: HT-29 IL-13/IL-8 assay; type: cell-based; conditions: Homo sapiens, HT-29, read-out: Mean ± SD inhibitory potency [pIC50], IL-13/IL-8 (converted)
[9] = test system: IL-4-induced pSTAT6 in THP-1 cells; experiment: THP-1 IL-4/pSTAT6 assay; type: cell-based; conditions: Homo sapiens, THP-1, read-out: Mean ± SD inhibitory potency [pIC50], IL-4/pSTAT6 (converted)
[10] = test system: IL-6-induced pSTAT3 in THP-1 cells; experiment: THP-1 IL-6/pSTAT3 assay; type: cell-based; conditions: Homo sapiens, THP-1, read-out: Mean ± SD inhibitory potency [pIC50], IL-6/pSTAT3 (converted)
[11] = test system: GM-CSF-induced pSTAT5 in THP-1 cells; experiment: THP-1 GM-CSF/pSTAT5 assay; type: cell-based; conditions: Homo sapiens, THP-1, read-out: Mean ± SD inhibitory potency [pIC50], GM-CSF/pSTAT5 (converted)
[12] = test system: GM-CSF-induced pSTAT5 in human whole blood; experiment: Human whole blood GM-CSF/pSTAT5 assay; type: cell-based; conditions: read-out: Mean ± SD inhibitory potency [pIC50], GM-CSF/pSTAT5 (converted)
[13] = test system: IL-6-induced pSTAT1 in Balb/C mouse primary colonic epithelial cells; experiment: Mouse colonic epithelial cell IL-6/pSTAT1 assay; type: cell-based; conditions: from Table 1 pIC50
[14] = test system: moderately to severely active UC; experiment: Phase 1b study, efficacy assessments; type: in vivo, human; conditions: after the 28-day treatment, all doses
[15] = FTIH SAD/MAD study, safety and tolerability in healthy subjects; type: in vivo, human; conditions: single dose up to 1000 mg, daily doses up to 300 mg for 14 days
[16] = Phase 1b study, safety and tolerability in UC patients; type: in vivo, human; conditions: 20, 80, 270 mg QD 28 days
[17] = clinical; conditions: human, in vivo

Chain of mouse recombinant JAK1 (P52332 whole entry): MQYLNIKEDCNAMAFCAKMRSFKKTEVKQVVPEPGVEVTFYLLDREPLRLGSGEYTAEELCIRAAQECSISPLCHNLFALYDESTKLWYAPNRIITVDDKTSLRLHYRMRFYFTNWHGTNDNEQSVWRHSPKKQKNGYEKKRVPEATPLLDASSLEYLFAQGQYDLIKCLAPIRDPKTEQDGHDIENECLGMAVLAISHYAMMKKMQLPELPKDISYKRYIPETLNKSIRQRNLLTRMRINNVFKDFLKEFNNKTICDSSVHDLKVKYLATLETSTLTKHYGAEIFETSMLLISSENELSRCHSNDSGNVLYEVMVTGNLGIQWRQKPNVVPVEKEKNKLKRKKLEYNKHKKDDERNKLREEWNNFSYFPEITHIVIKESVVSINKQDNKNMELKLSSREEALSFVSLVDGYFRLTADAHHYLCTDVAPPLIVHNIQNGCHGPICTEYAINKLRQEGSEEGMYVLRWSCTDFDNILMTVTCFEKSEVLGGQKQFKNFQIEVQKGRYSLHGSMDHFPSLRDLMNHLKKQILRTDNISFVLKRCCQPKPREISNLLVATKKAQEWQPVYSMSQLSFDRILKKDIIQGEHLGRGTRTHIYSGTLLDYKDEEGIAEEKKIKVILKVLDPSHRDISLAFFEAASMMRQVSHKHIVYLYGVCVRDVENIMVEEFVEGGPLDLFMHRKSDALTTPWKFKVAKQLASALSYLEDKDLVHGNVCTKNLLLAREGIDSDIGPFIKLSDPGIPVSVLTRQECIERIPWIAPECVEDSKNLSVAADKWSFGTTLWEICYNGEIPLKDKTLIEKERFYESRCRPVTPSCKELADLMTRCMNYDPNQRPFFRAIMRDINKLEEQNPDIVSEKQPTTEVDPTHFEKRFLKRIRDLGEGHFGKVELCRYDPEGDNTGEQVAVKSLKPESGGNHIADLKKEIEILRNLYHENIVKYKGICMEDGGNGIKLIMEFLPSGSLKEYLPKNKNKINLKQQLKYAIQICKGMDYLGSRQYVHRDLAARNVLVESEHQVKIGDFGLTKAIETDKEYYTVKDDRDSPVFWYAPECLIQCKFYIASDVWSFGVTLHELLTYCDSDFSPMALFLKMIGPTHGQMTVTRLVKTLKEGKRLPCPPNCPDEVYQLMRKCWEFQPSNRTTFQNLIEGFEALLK
Chain of human recombinant TYK2 (P29597 whole entry): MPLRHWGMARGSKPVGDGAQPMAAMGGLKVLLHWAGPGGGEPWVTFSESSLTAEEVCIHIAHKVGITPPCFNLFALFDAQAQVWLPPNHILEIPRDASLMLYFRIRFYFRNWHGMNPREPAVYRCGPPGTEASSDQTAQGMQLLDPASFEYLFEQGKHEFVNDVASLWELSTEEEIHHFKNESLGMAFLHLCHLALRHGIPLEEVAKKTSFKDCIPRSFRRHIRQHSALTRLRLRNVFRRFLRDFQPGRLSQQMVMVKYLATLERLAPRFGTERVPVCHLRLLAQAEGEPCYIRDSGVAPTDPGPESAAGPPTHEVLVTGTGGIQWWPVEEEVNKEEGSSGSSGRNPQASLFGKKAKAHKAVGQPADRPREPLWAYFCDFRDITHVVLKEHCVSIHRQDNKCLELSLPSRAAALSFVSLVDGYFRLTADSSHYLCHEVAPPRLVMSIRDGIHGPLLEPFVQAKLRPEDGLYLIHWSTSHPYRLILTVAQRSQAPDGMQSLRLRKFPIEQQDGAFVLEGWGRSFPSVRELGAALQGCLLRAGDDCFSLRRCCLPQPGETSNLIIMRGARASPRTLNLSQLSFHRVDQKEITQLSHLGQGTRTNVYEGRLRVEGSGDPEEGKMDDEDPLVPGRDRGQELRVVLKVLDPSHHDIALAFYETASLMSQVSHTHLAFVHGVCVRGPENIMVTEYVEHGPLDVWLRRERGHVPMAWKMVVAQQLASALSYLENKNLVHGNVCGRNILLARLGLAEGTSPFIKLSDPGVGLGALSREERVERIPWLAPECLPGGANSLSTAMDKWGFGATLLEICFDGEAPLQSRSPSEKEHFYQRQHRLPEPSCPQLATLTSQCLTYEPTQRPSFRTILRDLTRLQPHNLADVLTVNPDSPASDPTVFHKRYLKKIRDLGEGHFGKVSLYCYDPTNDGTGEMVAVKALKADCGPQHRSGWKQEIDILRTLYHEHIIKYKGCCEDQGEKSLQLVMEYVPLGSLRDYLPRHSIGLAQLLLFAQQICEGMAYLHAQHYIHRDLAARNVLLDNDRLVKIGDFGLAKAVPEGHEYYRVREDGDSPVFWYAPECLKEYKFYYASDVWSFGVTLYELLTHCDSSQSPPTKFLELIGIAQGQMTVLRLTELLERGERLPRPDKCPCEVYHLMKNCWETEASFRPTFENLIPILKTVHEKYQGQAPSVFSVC

C[C@@H]1CCN(C(=O)CC#N)C[C@@H]1N(C)c1ncnc2[nH]ccc12 [tofacitinib, reference compound]
effects of oxazolone (DAI and subscores) [1]: did not significantly attenuate | oxazolone-induced elevated DAI, reduction in body weight and stool consistency, increase in stool blood content ([1]; oral 10 and 15 mg/kg TID): attenuated | T cell infiltration into the colonic mucosa [2]: preventing T cell infiltration | pSTAT3 levels in colonic mucosa of oxazolone-treated mice vs vehicle ([2]; 30 mg/kg): significantly inhibited | splenic T and B cell numbers ([3]; oral 10, 15 and 30 mg/kg TID): did not affect | colonic level 24 h postdose (BLQ) ([4]; 10 mg/kg oral): < 0.00025 µM | concentration at 24 h [4]: < 0.25 nM | Cmax ([4]; colon, 10 mg/kg oral): 2570 ng/mL | Cmax ([4]; plasma, 10 mg/kg oral): 193 ng/mL

Cc1cc(Nc2cc3ncccc3c(N[C@@H]3C[C@H]4CC[C@@H](C3)N4CCC#N)n2)n[nH]1 [TD-1473]
stronger potency for TYK2 compared with tofacitinib [5]: approximately 40 fold | Ki [6]: 0.0631 nM | IC50 [7]: 79.4 nM | IC50 [8]: 79.4 nM | IC50 [9]: 31.6 nM | IC50 [10]: 50.1 nM | IC50 [11]: 100 nM | IC50 [12]: 200 nM | mouse colonic epithelial IL-6/pSTAT1 IC50 [13]: 0.020 µg/g | effects of oxazolone (DAI and subscores) [1]: did not significantly attenuate | oxazolone-induced elevated DAI, reduction in body weight and stool consistency, increase in stool blood content ([1]; oral 0.3–10 mg/kg BID): attenuated | T cell infiltration into the colonic mucosa ([2]; 30 mg/kg): preventing T cell infiltration | pSTAT3 levels in colonic mucosa of oxazolone-treated mice vs vehicle ([2]; 30 mg/kg): significantly inhibited | numbers of splenic NK, B or T cells vs vehicle ([3]; oral 1, 10 and 100 mg/kg BID): did not affect | clinical remission [14]: No patient achieved clinical remission | tolerability [15]: generally well tolerated | TEAE incidence, TD-1473 treatment arms overall [16]: 38.7% | laboratory parameters (haematological, renal, hepatic, creatinine phosphokinase, lipid) [16]: did not adversely affect | tolerability [16]: generally well tolerated | colonic tissue concentration, geometric mean [95% CI] (20 mg QD, day 28): 4090 [2270–7380] pg/g | geometric mean colonic tissue concentration [average of sigmoid and rectum] (20 mg QD, day 28): 4090 pg/mL | patients with plasma trough concentration BLQ (20 mg, day 14): 4/9 | geometric mean colonic tissue concentration [average of sigmoid and rectum] (80 mg QD, day 28): 65 300 pg/mL | geometric mean trough concentration as % of Cmax (80 mg, day 14): 3.57% | geometric mean colonic tissue concentration [average of sigmoid and rectum] (270 mg QD, day 28): 43 500 pg/mL | geometric mean trough concentration as % of Cmax (270 mg, day 14): 5.79% | Tmax [17]: ~1 h | concentration at 24 h [4]: < 0.25 nM | Cmax ([4]; colon, 10 mg/kg oral): 3690 ng/g | Cmax ([4]; plasma, 10 mg/kg oral): 1.4 ng/mL
